Columns and labels:
[1] = biological target: T1, RNase A (Bos taurus, UniProt P61823); experiment: RNA cleavage assay with total RNA from HeLa cells, agarose gel imaging; type: biochemical, bovine; set-up: Ribonuclease A (Type II-A) from bovine pancreas; purchased Sigma-Aldrich Korea; host or cells: bovine pancreas; conditions: RNase 0.7 μg/ml, agarose gel image analysis, read-out: IC50 for RNase A activity inhibition
T1 sequence (P61823 27-150): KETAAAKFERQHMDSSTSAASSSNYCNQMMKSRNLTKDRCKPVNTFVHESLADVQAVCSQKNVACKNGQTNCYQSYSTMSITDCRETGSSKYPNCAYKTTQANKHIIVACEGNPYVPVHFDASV
Method: The analysis of RNase inhibitory activity of Fv antibodies and synthetic peptides was performed using RNA samples extracted from HeLa cells as follows: (1) Mixing the RNA sample extracted from HeLa cells (600 ng) with 87.5 nM-5.6 μM under conditions of 37° C. for 30 minutes, (2) Electrophoresis on a 1% agarose gel at 90 V for 40 minutes. The estimation of RNase inhibitory activity was carried out by gel imaging of the cleaved RNA using a ChemiDoc XPS (Bio-Rad, CA, USA).
(§1) Using RNA samples extracted from HeLa cells, the RNase inhibitory activity of the synthesized peptides was estimated. The RNase inhibitory activity was assessed using agarose gel imaging of the cleaved RNA. To optimize the RNase concentration for the RNase inhibition assay, total RNA was treated with RNase A (600 ng), with RNase A concentrations ranging from 5.7 ng/ml to 3.6 μg/ml, and the cleaved RNA bands were observed after treatment with ETBR (ethidium bromide). […] The RNase concentration for inhibition analysis was determined to be 0.7 μg/ml, with RNase concentrations above 3.6 μg/ml. The inhibition analysis was performed by mixing total RNA from HeLa cells with RNase (0.7 μg/ml) and Fv-antibody at a concentration of 10 μM, resulting in the observation that the entire RNA was completely cleaved into small RNA bands in the absence of the Fv-antibody. […] The optimal concentration of the Fv-antibody for RNase inhibition was determined by the cleavage reaction with total RNA in the concentration range of 87.5 nM to 5.6 μM for Fv-antibodies (Fv-1, Fv-2, Fv-3).
The analysis of RNase inhibitory activity of Fv antibodies and synthetic peptides was performed using RNA samples extracted from HeLa cells as follows: (1) A mixture of RNA samples extracted from HeLa cells (600 ng) was prepared at concentrations of 87.5 nM-5.6 μM and incubated at 37° C. for 30 minutes; (2) Electrophoresis was conducted in a 1% agarose gel under 90 V for 40 minutes. The estimation of RNase inhibitory activity was carried out by gel imaging of the cleaved RNA using a ChemiDoc XPS (Bio-Rad, CA, USA).
as §1, with “the” for “the concentration”

[2] = biological target: T1, RNase A; experiment: RNase activity test kit, modified Taq-man RNA probe analysis (ab273299); type: biochemical; set-up: purchased Abcam ab273299; conditions: inhibitor 1 μM; after 60 minutes; positive control (no inhibitor) = 100%
Method: The activity of RNase A, which degrades RNA, was evaluated using specially designed RNA probes. This RNase A analysis was performed using a commercial RNase activity test kit based on a modified Taq-man probe analysis (ab273299) from Abcam (Cambridge, UK). To compare inhibitory activity, three synthetic peptides (peptide-1, peptide-2, peptide-3) and three expressed Fv-antibodies (Fv-1, Fv-2, and Fv-3) were compared using two types of commercially available RNase inhibitors from Biofact™ (Daejeon, South Korea) and two types of RNaseOUT™ from Thermofisher (USA). The probes for the RNase inhibition analysis contained RNA probes with fluorescent dyes and quenching materials at each end of the RNA sequence. […] To estimate the RNase A inhibitory activity by the three synthesized peptides, each peptide was treated at a concentration of 1 μM using the analysis kit, and RNase activity was measured. The positive control was prepared to have an RNase reaction without an inhibitor, and the negative control was prepared to have an RNase reaction without the RNA probe. […] The RNase A inhibitory activity of the three synthesized peptides was analyzed after treating each peptide at a concentration range of 100 μM to 1 μM in the assay kit. […] The RNase A inhibitory activity of the three expressed Fv-antibodies was analyzed after treating each peptide at a concentration range of 100 μM to 1 μM in the analysis kit.
The activity of RNase A, which degrades RNA, was evaluated using specially designed RNA probes. This RNase A analysis was performed using a commercial RNase activity test kit based on a modified Taq-man probe analysis (ab273299) from Abcam (Cambridge, UK). For the comparison of inhibitory activity, three synthetic peptides (Peptide-1, Peptide-2, Peptide-3) and three expressed Fv-antibodies (Fv-1, Fv-2, and Fv-3) were compared using two types of commercially available RNase inhibitors from Biofact™ (Daejeon, South Korea) and two types of RNaseOUT™ from Thermofisher (USA). The probes for the RNase inhibition analysis contain RNA probes with fluorescent dyes and fluorescent quenchers at each end of the RNA nucleotide sequence.
To estimate the RNase A inhibitory activity of the three synthesized peptides, each peptide was treated at a concentration of 1 μM using an assay kit, and the RNase activity was evaluated. The positive control was prepared to have an RNase reaction without the inhibitor, while the negative control was prepared to have an RNase reaction without the RNA probe.
The RNase A inhibitory activity of the three synthesized peptides was analyzed after treating each peptide at a concentration range of 100 μM to 1 μM with the RNase A from the assay kit.

Substance	IC50 [1] [nM]	relative inhibition level / reduction of RNase A activity [2] [%]
Inhibitor-1 [reference compound]	257	35.8
Inhibitor-2 [reference compound]	381	27.2
